Article PMC7408547, “Bivalent Inhibitor with Selectivity for Trimeric MMP-9 Amplifies Neutrophil Chemotaxis and Enables Functional Studies on MMP-9 Proteoforms” (Cells, 2020)
Entries after “also recorded” stand apart in the source; their conditions may differ.

Columns and labels:
C57BL/6 mice [1] = assay: Mouse air pouch model of in vivo chemotaxis towards LPS; conditions: for total amount of white blood cells recruited to the pouches: compound 5 µg with LPS 2 µg, 4 h after injection
Experimental: Air pouches were established by injecting C57BL/6 mice on dorsal sites with 3 mL filtered air (0.20 μm filter) on days 0 and 3. On day 6, test samples were injected in a total volume of 1 mL and at the indicated amount. After 4 h, mice were euthanized and the exudates of the pouches were collected after injection of 1 mL pyrogen-free PBS containing 20 U/mL heparin and 2% KnockOut™ Serum Replacement (Gibco, Waltham, MA, USA), and followed by 30 sec of gentle massage. This procedure was repeated twice with 2 mL buffer. Next, the pouch fluid was centrifuged (10 min, 500× g) and supernatant and cell pellets were separated for further analysis. Data were collected during three independent experiments with 3–4 mice per group. All procedures were conducted in accordance with protocols approved by the local Ethics Committee (License number P033/2018, Belgium).
For microscopic evaluation of cells derived from air pouches, 75 × 10^3 cells were deposited evenly onto a glass slide by centrifugation using a Shandon Cytospin 2 apparatus (Thermo Shandon, Pittsburgh, PA, USA). Next, the preparations were stained with Hemacolor (Merck Chemicals, Darmstadt, Germany). Cells were divided into 4 categories; neutrophils, monocytes/macrophages, lymphocytes and other cells. For each condition, three times 100 cells were counted and the average was used as a final value.
Approximately 10^6 cells were incubated for 15 min with the Fc-receptor-blocking antibodies anti-CD16/anti-CD32 (BD Biosciences Pharmingen, San Diego, CA, USA) and with a Zombie Aqua™ viability dye (BioLegend, San Diego, CA, USA). […] Cells were analyzed on a BD LSR Fortessa X20 with DIVA software (BD, Franklin Lakes, NJ, USA, v9.0). Results were further analyzed with the FlowJo software (BD, Franklin Lakes, NJ, USA, v10.0). […]

C57BL/6 mice [2] = assay: Mouse endotoxemia model; format: in vivo; conditions: for levels of MMP-9 in plasma and lungs (Western blot): 5 h after LPS/compound administration
Experimental: Endotoxemia was induced in 8-week old C57BL/6 mice by intraperitoneal (i.p.) injection of lipopolysaccharides (LPS) (Escherichia coli 0111:B4, cat. no. 4391, Sigma-Aldrich, St. Louis, MO, USA ) at 10 mg/kg. Control mice were injected with an equal volume of vehicle (pyrogen-free phosphate-buffered saline). A volume of 500 µl compound 5 or 7, diluted in PBS with 2% DMSO (2 mg/mL), was injected i.p. at the same time as the LPS injection (± 50 mg/kg). […] After induction of endotoxemia, progression of the disease was monitored by hourly evaluation of mouse body temperature (rectal probe) and disease scoring by use of the mouse sepsis score (MSS) as described. When the MSS score was above 21, humane endpoints were reached and mice were sacrificed. Blood was collected by cardiac puncture with a heparin-coated needle and syringe, and immediately processed by centrifugation (2000× g for 10 min at 4 °C). The supernatant (plasma) was collected and stored for further analysis. Mice were dissected and organs were stored for further analysis. Bone marrow cells were collected from femora by flushing the medullary cavity with PBS and after centrifugation the cell pellet was immediately processed for downstream analysis. All procedures were conducted in accordance with protocols approved by the local ethics committee (project number P128/2019, KU Leuven, Belgium).
Tissues were homogenized and proteins extracted with a Precellys lysing kit (Bertin Technologies, Rockville, MD, USA). Briefly, tissues were placed in hard tissue homogenizing CK28 tubes (Bertin Technologies, Rockville, MD, USA). Then, 600 µL of RIPA buffer was added to all tubes and homogenization was done using the Precellys®24 (Bertin Technologies, Rockville, MD, USA). To precipitate all tissue debris, the tubes were centrifuged at 20,800× g and 4 °C for 15 min. Supernatant, containing soluble proteins, was collected and used for further analysis. Total protein content of all samples was determined by using a standard Bradford assay (Bio-Rad, Hercules, CA, USA). […] Proteins were transferred to PVDF membranes using the Trans-Blot Turbo Transfer System with associated materials and protocols (Biorad, Hercules, CA, USA). Next, membranes were blocked for 1 h in 5% BSA with TBST buffer (150 mM NaCl, 0.1% Tween 20, 50 mM Tris, pH 7.5). Membranes were incubated overnight with anti-MMP-9 (AF909, R & D systems, Minneapolis, MO, USA) or anti-tubulin (MA5-16308-HRP, Invitrogen, Carlsbad, CA, USA) antibodies. After washing, the blot was incubated with peroxidase-conjugated anti-goat IgG (PI-9500, Vector Labs, Burlingame, CA, USA) or anti-mouse IgG (115-035-071, Jackson ImmunoResearch, PA, USA) for 1 h at room temperature. […]

[3] = 10 mg/kg LPS i.p. and ± 50 mg/kg compound i.p. simultaneously, hourly

Q: For `CC(C)[C@H](C(=O)O)N(CCNC(=O)c1cccc(C(=O)NCCN([C@@H](C(=O)O)C(C)C)S(=O)(=O)c2ccc(-c3ccccc3)cc2)c1)S(=O)(=O)c1ccc(-c2ccccc2)cc1` [Compound 7], which “neutrophil migration towards E. coli-derived LPS” value (C57BL/6 mice [1]; air pouch, 4 h) is on record?
A: increases neutrophil migration

Q: And the “total amount of white blood cells recruited to the pouches” value (C57BL/6 mice [1])?
A: significant increase compared to LPS alone

Q: And the “total amount of white blood cells recruited to the pouches” value (C57BL/6 mice [1]; listed as bivalent inhibitor)?
A: amplified leukocyte influxes

Q: And the “disease score (mouse sepsis score, MSS)” value (C57BL/6 mice [2]; [3])?
A: (although not significant) increase in disease score; also recorded: did not alter disease scores compared to compound 5

Q: What about the mouse body temperature (C57BL/6 mice [2]; [3]) of the same compound?
A: early and significant drop in mouse body temperature

Q: And the “levels of MMP-9 in plasma and lungs (Western blot)” value (C57BL/6 mice [2])?
A: further induce the presence of MMP-9; also recorded: increased

Q: And the “levels of MMP-9 in plasma and lungs (Western blot)” value (C57BL/6 mice [2]; listed as bivalent inhibitor)?
A: significantly increased levels of MMP-9 in plasma and lungs
